# Measurements: ChEMBL document CHEMBL5154752, “CLIPSing Melanotan-II to Discover Multiple Functionally Selective hMCR Agonists” (J Med Chem, 2022)
# Columns and labels:
# [1] = molecular target: T1, Melanocortin receptor 3 (Homo sapiens, UniProt P41968); assay: Agonist activity at human MC3R expressed in HEK293 cells assessed as maximal intracellular cAMP accumulation by fluorescence based analysis; type: functional, cell-based
# [2] = molecular target: T1, Melanocortin receptor 3; assay: Agonist activity at human MC3R expressed in HEK293 cells assessed as maximal intracellular cAMP accumulation at 10 uM by fluorescence based analysis relative to control; type: functional, cell-based; settings: filed as agonist
# [3] = molecular target: T1, Melanocortin receptor 3; assay: Displacement of [125I]NDP-alpha-MSH from human MC3R expressed in HEK293 cells by competitive binding assay; type: cell-based
# [4] = molecular target: T2, Melanocortin receptor 5 (Homo sapiens, UniProt P33032); assay: Agonist activity at human MC5R expressed in HEK293 cells assessed as maximal intracellular cAMP accumulation at 10 uM by fluorescence based analysis relative to control; type: functional, cell-based; settings: filed as agonist
# [5] = molecular target: T3, Melanocortin receptor 4 (Homo sapiens, UniProt P32245); assay: Displacement of [125I]NDP-alpha-MSH from human MC4R expressed in HEK293 cells by competitive binding assay; type: cell-based
# [6] = molecular target: T2, Melanocortin receptor 5; assay: Agonist activity at human MC5R expressed in HEK293 cells assessed as maximal intracellular cAMP accumulation by fluorescence based analysis; type: functional, cell-based
# [7] = molecular target: T4, Melanocyte-stimulating hormone receptor (Homo sapiens, UniProt Q01726); assay: Agonist activity at human MC1R expressed in HEK293 cells assessed as maximal intracellular cAMP accumulation at 10 uM by fluorescence based analysis relative to control; type: functional, cell-based; settings: filed as agonist
# Target sequence in this assay (Q01726 whole entry, looked up): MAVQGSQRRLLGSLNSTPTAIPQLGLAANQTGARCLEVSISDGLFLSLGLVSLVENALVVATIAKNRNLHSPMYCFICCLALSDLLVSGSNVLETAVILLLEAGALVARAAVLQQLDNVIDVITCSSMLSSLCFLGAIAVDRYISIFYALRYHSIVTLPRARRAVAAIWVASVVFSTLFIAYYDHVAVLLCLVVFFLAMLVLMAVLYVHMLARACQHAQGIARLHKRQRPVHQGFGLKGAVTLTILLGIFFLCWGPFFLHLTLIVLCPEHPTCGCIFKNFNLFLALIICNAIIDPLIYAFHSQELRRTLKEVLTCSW
# [8] = molecular target: T3, Melanocortin receptor 4; assay: Agonist activity at human MC4R expressed in HEK293 cells assessed as maximal intracellular cAMP accumulation by fluorescence based analysis; type: functional, cell-based
# [9] = molecular target: T4, Melanocyte-stimulating hormone receptor; assay: Agonist activity at human MC1R expressed in HEK293 cells assessed as maximal intracellular cAMP accumulation by fluorescence based analysis; type: functional, cell-based
# Target sequence in this assay (Q01726 whole entry): as the sequence (Q01726 whole entry, looked up) above
# [10] = molecular target: T4, Melanocyte-stimulating hormone receptor; assay: Displacement of [125I]NDP-alpha-MSH from human MC1R expressed in HEK293 cells by competitive binding assay; type: cell-based
# Target sequence in this assay (Q01726 whole entry): as the sequence (Q01726 whole entry, looked up) above
# [11] = molecular target: T2, Melanocortin receptor 5; assay: Displacement of [125I]NDP-alpha-MSH from human MC5R expressed in HEK293 cells by competitive binding assay; type: cell-based
# [12] = molecular target: T2, Melanocortin receptor 5; assay: Agonist activity at human MC5R expressed in HEK293 cells assessed as cAMP accumulation at 10 uM by fluorescence based analysis relative to control; type: functional, cell-based
# T1 sequence (P41968 whole entry): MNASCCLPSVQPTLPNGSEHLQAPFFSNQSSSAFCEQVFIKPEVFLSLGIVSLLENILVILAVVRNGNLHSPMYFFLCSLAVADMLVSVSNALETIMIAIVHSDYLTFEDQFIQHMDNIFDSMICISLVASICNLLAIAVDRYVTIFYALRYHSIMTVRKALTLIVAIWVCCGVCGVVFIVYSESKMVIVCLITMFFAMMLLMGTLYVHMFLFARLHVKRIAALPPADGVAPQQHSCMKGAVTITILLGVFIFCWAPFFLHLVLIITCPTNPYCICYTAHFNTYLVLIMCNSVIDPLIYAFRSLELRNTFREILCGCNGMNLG
# T2 sequence (P33032 whole entry): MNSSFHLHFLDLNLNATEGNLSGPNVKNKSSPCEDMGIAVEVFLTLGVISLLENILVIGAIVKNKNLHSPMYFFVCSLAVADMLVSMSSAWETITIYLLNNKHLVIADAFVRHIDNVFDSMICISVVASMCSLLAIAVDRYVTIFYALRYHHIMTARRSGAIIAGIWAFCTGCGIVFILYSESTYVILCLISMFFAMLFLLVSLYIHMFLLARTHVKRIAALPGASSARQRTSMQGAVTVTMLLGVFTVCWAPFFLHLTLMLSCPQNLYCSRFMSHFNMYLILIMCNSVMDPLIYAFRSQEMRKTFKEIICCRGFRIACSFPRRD
# T3 sequence (P32245 whole entry): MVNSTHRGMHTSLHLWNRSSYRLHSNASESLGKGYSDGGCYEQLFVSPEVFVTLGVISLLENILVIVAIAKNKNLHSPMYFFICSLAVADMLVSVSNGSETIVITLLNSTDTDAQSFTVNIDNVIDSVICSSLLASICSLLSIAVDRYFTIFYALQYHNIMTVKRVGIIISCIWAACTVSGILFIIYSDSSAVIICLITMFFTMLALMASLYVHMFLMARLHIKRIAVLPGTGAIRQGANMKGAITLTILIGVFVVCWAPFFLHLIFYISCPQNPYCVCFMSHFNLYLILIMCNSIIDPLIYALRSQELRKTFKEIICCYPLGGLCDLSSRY
structure (smiles),measurement,setting,value
CCCC[C@H](NC(C)=O)C(=O)N[C@H]1CSCc2ccccc2CSC[C@@H](C(N)=O)NC(=O)[C@H](Cc2c[nH]c3ccccc23)NC(=O)[C@H](CCCNC(=N)N)NC(=O)[C@@H](Cc2ccccc2)NC(=O)[C@H](Cc2c[nH]cn2)NC1=O,EC50,[1],> 1000 nM
same,Activity,[2],100%
same,IC50,[3],302 nM
same,Activity,[4],100%
same,IC50,[5],9.1 nM
same,EC50,[6],> 1000 nM
same,Activity,[7],100%
same,EC50,[8],360 nM
same,EC50,[9],107 nM
same,IC50,[10],275 nM
same,IC50,[11],78 nM
CCCC[C@H](NC(C)=O)C(=O)N[C@@H]1C(=O)N[C@@H](Cc2c[nH]cn2)C(=O)N[C@H](Cc2ccccc2)C(=O)N[C@@H](CCCNC(=N)N)C(=O)N[C@@H](Cc2c[nH]c3ccccc23)C(=O)N[C@H](C(N)=O)CSCc2ccc(cc2)CSC1(C)C,IC50,[3],> 1000 nM
same,IC50,[5],> 1000 nM
same,IC50,[10],227 nM
same,IC50,[11],422 nM
CCCC[C@H](NC(C)=O)C(=O)N[C@@H]1C(=O)N[C@@H](Cc2c[nH]cn2)C(=O)N[C@H](Cc2ccccc2)C(=O)N[C@@H](CCCNC(=N)N)C(=O)N[C@@H](Cc2c[nH]c3ccccc23)C(=O)N[C@H](C(N)=O)CSCc2cccc(c2)CSC1(C)C,EC50,[1],9.4 nM
same,Activity,[2],100%
same,IC50,[3],244 nM
same,Activity,[4],100%
same,IC50,[5],628 nM
same,EC50,[6],126 nM
same,Activity,[7],100%
same,EC50,[8],618 nM
same,EC50,[9],> 1000 nM
same,IC50,[10],70 nM
same,IC50,[11],93.5 nM
CCCC[C@H](NC(C)=O)C(=O)N[C@H]1CSCc2ccccc2CSC(C)(C)[C@@H](C(N)=O)NC(=O)[C@H](Cc2c[nH]c3ccccc23)NC(=O)[C@H](CCCNC(=N)N)NC(=O)[C@@H](Cc2ccccc2)NC(=O)[C@H](Cc2c[nH]cn2)NC1=O,Activity,[12],0%
same,EC50,[1],> 1000 nM
same,Activity,[2],100%
same,IC50,[3],74 nM
same,Activity,[4],100%
same,IC50,[5],45.8 nM
same,Activity,[7],100%
same,EC50,[8],> 1000 nM
same,EC50,[9],6.1 nM
same,IC50,[10],44 nM
same,IC50,[11],46 nM
CCCC[C@H](NC(C)=O)C(=O)N[C@H]1CSCc2ccc(cc2)CSC[C@@H](C(N)=O)NC(=O)[C@H](Cc2c[nH]c3ccccc23)NC(=O)[C@H](CCCNC(=N)N)NC(=O)[C@@H](Cc2ccccc2)NC(=O)[C@H](Cc2c[nH]cn2)NC1=O,EC50,[1],645 nM
same,IC50,[3],24 nM
same,EC50,[6],> 1000 nM
same,EC50,[9],4 nM
same,IC50,[10],7.3 nM
same,IC50,[11],2 nM
CCCC[C@H](NC(C)=O)C(=O)N[C@@H]1C(=O)N[C@@H](Cc2c[nH]cn2)C(=O)N[C@H](Cc2ccccc2)C(=O)N[C@@H](CCCNC(=N)N)C(=O)N[C@@H](Cc2c[nH]c3ccccc23)C(=O)N[C@H](C(N)=O)CSCc2ccccc2CSC1(C)C,IC50,[3],222 nM
same,IC50,[5],619 nM
same,IC50,[10],150 nM
same,IC50,[11],157 nM
CCCC[C@H](NC(C)=O)C(=O)N[C@@H]1C(=O)N[C@@H](Cc2c[nH]cn2)C(=O)N[C@H](Cc2ccccc2)C(=O)N[C@@H](CCCNC(=N)N)C(=O)N[C@@H](Cc2c[nH]c3ccccc23)C(=O)N[C@H](C(N)=O)C(C)(C)SCc2cccc(c2)CSC1(C)C,IC50,[3],450 nM
same,IC50,[5],> 1000 nM
same,IC50,[10],450 nM
same,IC50,[11],172 nM
CCCC[C@H](NC(C)=O)C(=O)N[C@H]1CSCc2cccc(c2)CSC[C@@H](C(N)=O)NC(=O)[C@H](Cc2c[nH]c3ccccc23)NC(=O)[C@H](CCCNC(=N)N)NC(=O)[C@@H](Cc2ccccc2)NC(=O)[C@H](Cc2c[nH]cn2)NC1=O,EC50,[1],902 nM
same,IC50,[3],32 nM
same,EC50,[6],> 1000 nM
same,EC50,[9],3 nM
same,IC50,[10],3.5 nM
same,IC50,[11],4.4 nM
CCCC[C@H](NC(C)=O)C(=O)N[C@@H]1C(=O)N[C@@H](Cc2c[nH]cn2)C(=O)N[C@H](Cc2ccccc2)C(=O)N[C@@H](CCCNC(=N)N)C(=O)N[C@@H](Cc2c[nH]c3ccccc23)C(=O)N[C@H](C(N)=O)C(C)(C)SCc2ccccc2CSC1(C)C,IC50,[3],452 nM
same,IC50,[5],> 1000 nM
same,IC50,[10],553 nM
same,IC50,[11],507 nM
CCCC[C@H](NC(C)=O)C(=O)N[C@H]1CSCc2ccc(cc2)CSC(C)(C)[C@@H](C(N)=O)NC(=O)[C@H](Cc2c[nH]c3ccccc23)NC(=O)[C@H](CCCNC(=N)N)NC(=O)[C@@H](Cc2ccccc2)NC(=O)[C@H](Cc2c[nH]cn2)NC1=O,EC50,[1],246 nM
same,Activity,[2],100%
same,IC50,[3],64 nM
same,Activity,[4],100%
same,IC50,[5],57.2 nM
same,EC50,[6],48 nM
same,Activity,[7],100%
same,EC50,[8],219 nM
same,EC50,[9],3 nM
same,IC50,[10],19 nM
same,IC50,[11],69 nM
CCCC[C@H](NC(C)=O)C(=O)N[C@H]1CSCc2cccc(c2)CSC(C)(C)[C@@H](C(N)=O)NC(=O)[C@H](Cc2c[nH]c3ccccc23)NC(=O)[C@H](CCCNC(=N)N)NC(=O)[C@@H](Cc2ccccc2)NC(=O)[C@H](Cc2c[nH]cn2)NC1=O,EC50,[1],435 nM
same,IC50,[3],71 nM
same,EC50,[6],> 1000 nM
same,EC50,[9],6.5 nM
same,IC50,[10],9 nM
same,IC50,[11],30 nM
CCCC[C@H](NC(C)=O)C(=O)N[C@@H]1C(=O)N[C@@H](Cc2c[nH]cn2)C(=O)N[C@H](Cc2ccccc2)C(=O)N[C@@H](CCCNC(=N)N)C(=O)N[C@@H](Cc2c[nH]c3ccccc23)C(=O)N[C@H](C(N)=O)C(C)(C)SCc2ccc(cc2)CSC1(C)C,IC50,[3],> 1000 nM
same,IC50,[5],> 1000 nM
same,IC50,[10],> 1000 nM
same,IC50,[11],> 1000 nM
